Assay results reported in patent publication US5023084A, “Transdermal estrogen/progestin dosage unit, system and process” (Rutgers, The State University of New Jersey, priority 1988, dated 1991).

Assay: Permeation of estradiol and levonorgestrel across adult male human cadaver skin
Assay type: in vitro ADME
Details: not given
Method: Layer 2 contains levonorgestrel and layer 4 contains 17-beta-estradiol.
The primary and secondary enhancing agents are incorporated into levonorgestrel containing layer 2. The amounts of primary and secondary enhancing agents specified in Table 16 are used in making dosage units.
Permeation rates (mcg/sq. cm/hr±S.D.) are determined using the in vitro procedure of Y. W. Chien et al. identified in Example 1 using human cadaver skin.

Question: Which results are given for `Cc1c(C)c2c(c(C)c1O)CCC(C)(CCCC(C)CCCC(C)CCCC(C)C)O2` (racemic) [dl-alpha-Tocopherol]?
Answer: Estradiol/Levonorgestrel Rate/Ratio: 1.6 (0.10); Permeation Rate, Estradiol: 0.20 (0.031) mcg/sq. cm/hr; Permeation Rate, Levonorgestrel: 0.127 (0.021) mcg/sq. cm/hr

Question: Which “Estradiol/Levonorgestrel Rate/Ratio” value does the source give for `CCCCCCCCCCO` [n-Decyl Alcohol, n-decyl alcohol] here?
Answer: 2.4 (0.21)

Question: With `CCCCCCCCCCCCCCCC(=O)OC/C=C(C)/C=C/C=C(C)/C=C/C1=C(C)CCCC1(C)C` [Retinyl Palmitate, retinyl palmitate] as the molecule, how does the “Estradiol/Levonorgestrel Rate/Ratio” value read?
Answer: 1.0 (0.13)

Question: What about the “Permeation Rate, Estradiol” value of the same molecule?
Answer: 0.18 (0.030) mcg/sq. cm/hr

Question: And the “Permeation Rate, Levonorgestrel” value?
Answer: 0.176 (0.027) mcg/sq. cm/hr

Question: What does the source list for `CC1=C(/C=C/C(C)=C/C=C/C(C)=C/CO)C(C)(C)CCC1` [Retinol, retinol]?
Answer: Estradiol/Levonorgestrel Rate/Ratio: 1.5 (0.11); Permeation Rate, Estradiol: 0.21 (0.040) mcg/sq. cm/hr; Permeation Rate, Levonorgestrel: 0.141 (0.019) mcg/sq. cm/hr

Question: Which results are given for `CC(=O)Oc1c(C)c(C)c2c(c1C)CCC(C)(CCCC(C)CCCC(C)CCCC(C)C)O2` (racemic) [dl-alpha-Tocopherol Acetate]?
Answer: Estradiol/Levonorgestrel Rate/Ratio: 1.0 (0.07); Permeation Rate, Estradiol: 0.18 (0.024) mcg/sq. cm/hr; Permeation Rate, Levonorgestrel: 0.182 (0.029) mcg/sq. cm/hr

Question: Which “Estradiol/Levonorgestrel Rate/Ratio” value does the source give for `CC1=C(/C=C/C(C)=C/C=C/C(C)=C/C(=O)O)C(C)(C)CCC1` [Retinoic Acid, retinoic acid] here?
Answer: 1.4 (0.16)

Question: What about the “Permeation Rate, Estradiol” value of the same molecule?
Answer: 0.22 (0.033) mcg/sq. cm/hr

Question: And the “Permeation Rate, Levonorgestrel” value?
Answer: 0.159 (0.024) mcg/sq. cm/hr

Same assay, conditions: dosage unit with […] W/W n-decyl alcohol, with or without 5.0% secondary enhancer; S.D. in parentheses

Question: Which results are given for `CCCCCCCCCCO` [n-Decyl Alcohol, n-decyl alcohol]?
Answer: Permeation Rate, Estradiol: 0.19 (0.031) mcg/sq. cm/hr; Permeation Rate, Levonorgestrel: 0.080 (0.017) mcg/sq. cm/hr

Assay: not given
Details: oral; cited from earlier work

Question: For `C[C@]12CC[C@@H]3c4ccc(O)cc4CC[C@H]3[C@@H]1CC[C@@H]2O` [17-beta-estradiol], which “17-beta-estradiol destroyed when taken orally” value is on record?
Answer: over 90%
